Experimental data from patent US9201014B2, “Development of photostable near-IR cyanine dyes for in vivo imaging” (National University of Singapore, priority 2010, dated 2015).

Columns and labels:
[1] = in DMSO; cited from earlier work
[2] = Absorbance/fluorescence maxima, quantum yields and extinction coefficients of CyN compounds; type: physicochemical
Experimental: The absorbance and fluorescence maximum wavelengths and extinction coefficients of CyN-111, 165, 272 and 295 were measured using 10-μM solutions of CyN-111, CyN-165, CyN-272 or CyN-295 in 10 mM HEPES buffer (pH 7.4) containing 1% DMSO. Quantum yields were measured in DMSO, using Cardiogreen as a standard (φ: 0.13, in DMSO).

[3] = Time-course fluorescence measurements (photobleaching rate constants) of CyN and CyNA derivatives in HEPES buffer; type: physicochemical; settings: for k, rate of photobleaching: 10 μM in 10 mM HEPES pH 7.4, 1% DMSO, pseudo-first order; for kCyN/kCyNA: ratio of photobleaching rate constants, aqueous media
Experimental: Values were fitted to a non-linear regression one-phase exponential decay (GraphPad Prism 5.0). Detailed statistics for the one-phase decay analysis of the CyN compounds and 1 follow: Photodecomposition rate constants were determined by plotting -ln(F/F0) vs time, and calculated using a pseudo-first order rate equation. See […]., et al., Photochem. Photobiol. 2000, 72, 392-398.

[4] = Rates of photobleaching of CyNA-414 and CyN-414; type: physicochemical; settings: for k, rate of photobleaching: 10 μM in 10 mM HEPES pH 7.4, 1% DMSO, xenon flash lamp, 12 hours
Experimental: 10-μM solutions of CyNA-414 and CyN-414 in 10 mM HEPES buffer (pH 7.4) containing 1% DMSO were placed in a 96-well black plate, and fluorescence intensity measurements (n=3) were recorded every 10 minutes for a total period of 12 hours (excitation-emission: 640-750 nm for CyN-414, and 790-820 nm for CyNA-414) under a xenon flash lamp. Values were fitted to a non-linear regression one-phase exponential decay (GraphPad Prism 5.0).

[5] = Primary screening of photostability of the CyNA library (time-course fluorescence, 8 h); type: physicochemical; set-up: F/Fo, fluorescent intensity at 8 hours vs 0 hours: unit: %; settings: 10 μM in HEPES 100 mM pH 7.4, 2% DMSO
Outline: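 CyNA dyes at 10 μM in 100 mM HEPES pH 7.4 with 2% DMSO irradiated by xenon lamp for 8 h. Fluorescence (ex/em 790-820 nm) read every 10 min; stability given as F8h/Fo.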

[6] = Absorbance and fluorescence maximum wavelengths and quantum yields of the CyNA library; type: physicochemical; settings: for λabs, absorbance maximum wavelength / λem, fluorescence maximum wavelength: CyNA library; for φ, quantum yield: in DMSO, Cardiogreen as standard
Outline: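 Absorption and emission maxima and quantum yields of the 80-member amine-derivatized CyNA library were measured on a plate spectrophotometer.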

[7] = type: physicochemical
Experimental: As a primary evaluation of photo stability, the decrease in fluorescence intensity of the 80 CyNA compounds was measured (see Table 2). The average decrease in fluorescence intensity after 8 hours of irradiation by a xenon lamp was approximately 18%. A subset of the most photostable compounds (i.e., F/Fo reported in Table 2 was greater than or equal to 95) was examined under stronger irradiation in various buffers.
10-μM CyNA solutions in 10 mM HEPES buffer (pH 7.4) or PBS (pH 7.3) containing 1% DMSO were placed in a 96-well black plate, and irradiated for periods of 15 minutes up to 2 hours with a high-intensity UV lamp (100 W, 365 nm) at a 2-cm distance. Values are represented as means (n=2), and fitted to a non-linear regression one-phase exponential decay (GraphPad Prism 5.0). Results not shown.

[8] = Primary screen of SERS intensities of CyNAMLA-functionalized AuNPs (compact Raman scanner); type: physicochemical; settings: SERS spectra of CyNAMLA-functionalized AuNPs; excitation at 785 nm, laser power 60 mW
Experimental: FIG. 15 is a graph of the comparative surface-enhanced Raman spectroscopy (SERS) intensities of members of the CyNAMLA library measured with an excitation wavelength of 785 nm and a laser power of 60 mW in a compact Raman scanner.
The CyNAMLA compounds were adsorbed onto AuNPs having a diameter of approximately 60 nm, and the SERS properties of the resulting CyNAMLA-functionalized AuNPs were evaluated using a compact Raman scanner. Among metal nanoparticles, AuNPs are particularly suitable for in vivo applications due to their low toxicity, adaptability to bioconjugation, and reproducible signal intensity and quantification.

[9] = Characterization of the CyNAMLA library (absorbance maximum wavelengths); type: physicochemical; settings: absorbance maximum wavelength of CyNAMLA library compounds
Experimental: The amine group of 21 was protected using di-tert-butyl dicarbonate then derivatized with 80 different primary amines (for structures, see FIGS. 14A-14D). After acetylation of the newly-introduced amine, the compounds were treated with a solution of TFA-DCM (1:9) to remove the tert-butylcarbamate protecting group. The deprotected amine was then coupled to lipoic acid to yield CyNAMLA derivatives with an average purity of 90% (for HPLC-determined purities, see Table 6).

[10] = Photobleaching of CyNE790 and ICG-sulfo-OSu in PBS; type: physicochemical; settings: photobleaching experiments
Source text: CyNE790 was also compared to ICG-sulfo-OSu, a commercially available succinimidyl ester of ICG (for chemical structures of CyNE790 and ICG-sulfo-OSu, see FIG. 8).

[11] = Formation of aggregates: absorbance spectrum in DMSO vs PBS; type: physicochemical
[12] = Photophysical properties of CyNE790 and ICG-sulfo-OSu; type: physicochemical
Experimental: FIG. 7A is an absorbance spectrum of 10-μM solutions of CyNA-414, CyNE790, ICG and ICG-sulfo-OSu in DMSO and PBS.
FIG. […]
After corroborating the spectral properties of CyNE790 as a fluorescent NIR dye, its applicability for protein conjugation was assessed by comparing CyNE790 to ICG-sulfo-OSu, the commercially available succinidimyl ester of ICG. […] However, the application of ICG to molecular imaging has been limited because its fluorescence is drastically quenched after protein conjugation.

[13] = 10 μM in 10 mM HEPES pH 7.4, 1% DMSO

In the case of `CC1(C)C(/C=C/C=C/C=C/C=C2\N(CCCCS(=O)(=O)[O-])c3ccc4ccccc4c3C2(C)C)=[N+](CCCCS(=O)(=O)[O-])c2ccc3ccccc3c21.[Na+]` [Cardiogreen], the “φ of quantum yield standard” value [1] is listed as 0.13.
For `CCCN1/C(=C/C=C2\CCCC(/C=C/C3=[N+](CCC)c4ccccc4C3(C)C)=C2NCCCOC)C(C)(C)c2ccccc21.[I-]` [CyN-165], the “ε, extinction coefficient” value [2, 13] was 0.352 · 10^5 cm^−1M^−1, the λabs [2, 13] was 640 nm and the λem [2, 13] was 762 nm. The “φ, quantum yield” value ([2]; in DMSO, Cardiogreen as standard) was 0.37 and the “k, rate of photobleaching” value [3] was 3.49e-05 s⁻¹.
With `CCCN1/C(=C/C=C2\CCCC(/C=C/C3=[N+](CCC)c4ccccc4C3(C)C)=C2NCCCN2CCCCC2C)C(C)(C)c2ccccc21.[I-]` (stereo not shown) [CyN-414] the “k, rate of photobleaching” value [4] was 1.75e-05 s⁻¹.
With `CCCN1/C(=C/C=C2\CCCC(/C=C/C3=[N+](CCC)c4ccccc4C3(C)C)=C2N(CCc2ccccn2)C(C)=O)C(C)(C)c2ccccc21.[I-]` [CyNA-111] the “F/Fo, fluorescent intensity at 8 hours vs 0 hours” value (“F/Fo … vs 0 hours” for short) [5] was 96, the “max RFU, maximum relative fluorescence units” value [5] was 565.6 and the “λabs, absorbance maximum wavelength” value [6] was 804 nm. For the same molecule, the “λem, fluorescence maximum wavelength” value [6] was 818 nm, the “φ, quantum yield” value [6] was 0.11 and the “k, rate of photobleaching” value [3] was 3.41e-06 s⁻¹. For the same molecule, the kCyN/kCyNA [3] was 12.
In the case of `CCCN1/C(=C/C=C2\CCCC(/C=C/C3=[N+](CCC)c4ccccc4C3(C)C)=C2N(CCCOC)C(C)=O)C(C)(C)c2ccccc21.[I-]` [CyNA-165], the “F/Fo … vs 0 hours” value [5] is reported as 94, the “max RFU, maximum relative fluorescence units” value [5] is reported as 775.1 and the “λabs, absorbance maximum wavelength” value [6] is reported as 806 nm. For the same molecule, the “λem, fluorescence maximum wavelength” value [6] was 821 nm, the “φ, quantum yield” value [6] was 0.09 and the “k, rate of photobleaching” value [3] was 4.53e-06 s⁻¹. It also gave a kCyN/kCyNA [3] of 8.
In the case of `CCCN1/C(=C/C=C2\CCCC(/C=C/C3=[N+](CCC)c4ccccc4C3(C)C)=C2N(CC)C(C)=O)C(C)(C)c2ccccc21.[I-]` [CyNA-295], the “F/Fo … vs 0 hours” value [5] is reported as 100, the “max RFU, maximum relative fluorescence units” value [5] is reported as 698.6 and the “λabs, absorbance maximum wavelength” value [6] is reported as 806 nm. The “λem, fluorescence maximum wavelength” value [6] was 820 nm, the “φ, quantum yield” value [6] was 0.11 and the “k, rate of photobleaching” value [3] was 3.81e-06 s⁻¹. The kCyN/kCyNA [3] was 8.
In the case of `CCCN1/C(=C/C=C2\CCCC(/C=C/C3=[N+](CCC)c4ccccc4C3(C)C)=C2N(CCCN2CCCCC2C)C(C)=O)C(C)(C)c2ccccc21.[I-]` (stereo not shown) [CyNA-414], the “photostability under stronger irradiation in various buffers” value [7] is reported as “best photostability”, the “k, rate of photobleaching” value [4] is reported as 2.5e-06 s⁻¹ and the kCyN/kCyNA ([4]; CyN-414 vs CyNA-414) is reported as 7. The “F/Fo … vs 0 hours” value [5] was 100, the “max RFU, maximum relative fluorescence units” value [5] was 925.5 and the “λabs, absorbance maximum wavelength” value [6] was 804 nm. For the same molecule, the “λem, fluorescence maximum wavelength” value [6] was 819 nm and the “φ, quantum yield” value [6] was 0.13.
In the case of `CCCN1/C(=C/C=C2\CCCC(/C=C/C3=[N+](CCCNC(=O)CCCCC4CCSS4)c4ccccc4C3(C)C)=C2N(Cc2ccc(Cl)c(Cl)c2)C(C)=O)C(C)(C)c2ccccc21.O=C([O-])C(F)(F)F` (stereo not shown) [CyNAMLA-565], the Raman intensity [8] is reported as 14019 and the “λabs (max)” value [9] is reported as 805 nm.
In the case of `CCCN1/C(=C/C=C2\CCCC(/C=C/C3=[N+](CCCNC(=O)CCCCC4CCSS4)c4ccccc4C3(C)C)=C2N(CC(C)CC)C(C)=O)C(C)(C)c2ccccc21.O=C([O-])C(F)(F)F` (stereo not shown) [CyNAMLA-574], the Raman intensity [8] is reported as 1763 and the “λabs (max)” value [9] is reported as 804 nm.
For `CCCN1/C(=C/C=C2\CCCC(/C=C/C3=[N+](CCCNC(=O)CCCCC4CCSS4)c4ccccc4C3(C)C)=C2N(CCc2ccccc2-c2ccccc2)C(C)=O)C(C)(C)c2ccccc21.O=C([O-])C(F)(F)F` (stereo not shown) [CyNAMLA-599], the Raman intensity [8] was 11616 and the “λabs (max)” value [9] was 804 nm.
For `CCCN1/C(=C/C=C2\CCCC(/C=C/C3=[N+](CCCNC(=O)CCCCC4CCSS4)c4ccccc4C3(C)C)=C2N(CCCN2CCCC2)C(C)=O)C(C)(C)c2ccccc21.O=C([O-])C(F)(F)F` (stereo not shown) [CyNAMLA-611], the Raman intensity [8] was 18833 and the “λabs (max)” value [9] was 804 nm.
With `CCCN1/C(=C/C=C2\CCCC(/C=C/C3=[N+](CCCNC(=O)CCCCC4CCSS4)c4ccccc4C3(C)C)=C2N(CCc2ccc(Cl)cc2)C(C)=O)C(C)(C)c2ccccc21.O=C([O-])C(F)(F)F` (stereo not shown) [CyNAMLA-677] the Raman intensity [8] was 2455 and the “λabs (max)” value [9] was 805 nm.
With `CCCN1/C(=C/C=C2\CCCC(/C=C/C3=[N+](CCCNC(=O)CCCCC4CCSS4)c4ccccc4C3(C)C)=C2N(CCc2ccc(Cl)cc2Cl)C(C)=O)C(C)(C)c2ccccc21.O=C([O-])C(F)(F)F` (stereo not shown) [CyNAMLA-686] the Raman intensity [8] was 8146 and the “λabs (max)” value [9] was 806 nm.
In the case of `CC1(C)C(/C=C/C=C/C=C/C=C2\N(CCCCS(=O)(=O)[O-])c3ccc4ccccc4c3C2(C)C)=[N+](CCCCCC(=O)ON2C(=O)CC(S(=O)(=O)[O-])C2=O)c2ccc3ccccc3c21.[Na+]` (stereo not shown) [ICG-sulfo-OSu, reference compound], the “maximum relative fluorescence units (rfu)” value [10] is reported as 136 rfu, the “absorbance maximum in DMSO” value ([11]; 10 μM, DMSO) is reported as 780 nm and the “absorbance maximum in PBS” value ([11]; 10 μM, PBS) is reported as 695 nm. The “formation of aggregates in aqueous solution” value ([11]; spectral profile DMSO vs PBS) was “formation of aggregates”, the “Quantum Yield (DMSO)” value ([12]; DMSO, ICG as standard) was 12% and the “Quantum Yield (aqueous media)” value ([12]; PBS pH 7.3, 0.1% DMSO) was 0.4%. The “ε (aqueous media)” value ([12]; PBS pH 7.3, 0.1% DMSO) was 42,000 M^−1 · cm^−1.
